From the supplement of paper PMC10307832

Key:
Test in all cases: relative viability (nuclei count vs DMSO), 5 days (fraction); higher = more cells survive
NCI-H441 = test system: NCI-H441
Outline: (§1)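 Five library-drug doses in √10 steps were combined with a fixed anchor-drug dose, or a single drug was given alone, by pin tool to lung cancer cell lines in 1536-well plates the day after seeding. Nuclei were stained and counted after 5 days. Relative viability is the nuclei count in treated wells over that in vehicle wells, taken as the median of duplicate plates.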

NCI-H2405 = test system: NCI-H2405
Outline: as §1

UMC-11 = test system: UMC-11
Outline: as §1

H3255 = test system: H3255
Outline: as §1

NCI-H596 = test system: NCI-H596
Outline: as §1

NCI-H1437 = test system: NCI-H1437
Outline: as §1

HCC-366 = test system: HCC-366
Outline: as §1

LXF-289 = test system: LXF-289
Outline: as §1

NCI-H3122 = test system: NCI-H3122
Outline: as §1

NCI-H1915 = test system: NCI-H1915
Outline: as §1

PC-14 = test system: PC-14
Outline: as §1

HCC-15 = test system: HCC-15
Outline: as §1

A-427 = test system: A-427
Outline: as §1

NCI-H460 = test system: NCI-H460
Outline: as §1

NCI-H2009 = test system: NCI-H2009
Outline: as §1

NCI-H1755 = test system: NCI-H1755
Outline: as §1

PC-3 [JPC-3] = test system: PC-3 [JPC-3]
Outline: as §1

NCI-H650 = test system: NCI-H650
Outline: as §1

SK-LU-1 = test system: SK-LU-1
Outline: as §1

NCI-H2023 = test system: NCI-H2023
Outline: as §1

NCI-H1975 = test system: NCI-H1975
Outline: as §1

HARA = test system: HARA
Outline: as §1

How did the relative viability (NCI-H441; first compound 0.08 µM) turn out when Cc1cnc(-c2cnc(NCCNc3ccc(C#N)cn3)nc2-c2ccc(Cl)cc2Cl)[nH]1 + CC(C)C[C@H](NC(=O)[C@H](Cc1ccccc1)NC(=O)c1cnccn1)B(O)O [Bortezomib] (partner 0.002 µM) was run?
Its relative viability is 0.688.

What about the relative viability (NCI-H441; first compound 0.253 µM) of the same compound?
The relative viability was 0.352.

And the relative viability (NCI-H441; first compound 0.8 µM)?
The relative viability was 0.707.

What about the relative viability (NCI-H441; first compound 2.53 µM) of the same compound?
Its relative viability is 0.617.

What about the relative viability (NCI-H2405; first compound 0.08 µM) of the same compound?
Its relative viability is 0.68.

What about the relative viability (NCI-H2405; first compound 0.253 µM) of the same compound?
Its relative viability is 1.02.

What about the relative viability (NCI-H2405; first compound 0.8 µM) of the same compound?
The relative viability was 0.967.

And the relative viability (NCI-H2405; first compound 2.53 µM)?
Its relative viability is 0.98.

And the relative viability (UMC-11; first compound 0.08 µM)?
Its relative viability is 0.759.

What about the relative viability (UMC-11; first compound 0.253 µM) of the same compound?
The relative viability was 0.595.

And the relative viability (UMC-11; first compound 0.8 µM)?
The relative viability was 0.516.

And the relative viability (UMC-11; first compound 2.53 µM)?
The relative viability was 0.659.

And the relative viability (H3255; first compound 0.08 µM)?
The relative viability was 0.91.

What about the relative viability (H3255; first compound 0.253 µM) of the same compound?
Its relative viability is 0.563.

What about the relative viability (H3255; first compound 0.8 µM) of the same compound?
Its relative viability is 0.95.

And the relative viability (H3255; first compound 2.53 µM)?
The relative viability was 0.656.

What about the relative viability (NCI-H596; first compound 0.08 µM) of the same compound?
Its relative viability is 1.19.

What about the relative viability (NCI-H596; first compound 0.253 µM) of the same compound?
The relative viability was 0.802.

What about the relative viability (NCI-H596; first compound 0.8 µM) of the same compound?
Its relative viability is 1.09.

And the relative viability (NCI-H596; first compound 2.53 µM)?
Its relative viability is 1.12.

And the relative viability (NCI-H1437; first compound 0.08 µM)?
Its relative viability is 0.536.

And the relative viability (NCI-H1437; first compound 0.253 µM)?
Its relative viability is 0.475.

And the relative viability (NCI-H1437; first compound 0.8 µM)?
The relative viability was 0.451.

What about the relative viability (NCI-H1437; first compound 2.53 µM) of the same compound?
Its relative viability is 0.472.

What about the relative viability (HCC-366; first compound 0.08 µM) of the same compound?
The relative viability was 1.09.

And the relative viability (HCC-366; first compound 0.253 µM)?
Its relative viability is 0.989.

What about the relative viability (HCC-366; first compound 0.8 µM) of the same compound?
The relative viability was 0.967.

And the relative viability (HCC-366; first compound 2.53 µM)?
Its relative viability is 1.01.

What about the relative viability (LXF-289; first compound 0.08 µM) of the same compound?
The relative viability was 1.04.

And the relative viability (LXF-289; first compound 0.253 µM)?
Its relative viability is 0.946.

What about the relative viability (LXF-289; first compound 0.8 µM) of the same compound?
Its relative viability is 1.09.

And the relative viability (LXF-289; first compound 2.53 µM)?
The relative viability was 1.11.

And the relative viability (NCI-H3122; first compound 0.08 µM)?
The relative viability was 1.03.

What about the relative viability (NCI-H3122; first compound 0.253 µM) of the same compound?
Its relative viability is 0.925.

And the relative viability (NCI-H3122; first compound 0.8 µM)?
The relative viability was 0.997.

And the relative viability (NCI-H3122; first compound 2.53 µM)?
Its relative viability is 0.972.

What about the relative viability (NCI-H1915; first compound 0.08 µM) of the same compound?
The relative viability was 0.977.

What about the relative viability (NCI-H1915; first compound 0.8 µM) of the same compound?
Its relative viability is 1.02.

What about the relative viability (NCI-H1915; first compound 2.53 µM) of the same compound?
Its relative viability is 0.975.

And the relative viability (PC-14; first compound 0.08 µM)?
Its relative viability is 0.804.

What about the relative viability (PC-14; first compound 0.253 µM) of the same compound?
The relative viability was 0.84.

And the relative viability (PC-14; first compound 0.8 µM)?
The relative viability was 0.82.

And the relative viability (PC-14; first compound 2.53 µM)?
Its relative viability is 0.814.

What about the relative viability (HCC-15; first compound 0.08 µM) of the same compound?
The relative viability was 1.01.

What about the relative viability (HCC-15; first compound 0.253 µM) of the same compound?
Its relative viability is 0.575.

What about the relative viability (HCC-15; first compound 0.8 µM) of the same compound?
The relative viability was 1.

What about the relative viability (HCC-15; first compound 2.53 µM) of the same compound?
The relative viability was 0.969.

What about the relative viability (A-427; first compound 0.08 µM) of the same compound?
Its relative viability is 0.972.

And the relative viability (A-427; first compound 0.253 µM)?
The relative viability was 1.03.

What about the relative viability (A-427; first compound 0.8 µM) of the same compound?
Its relative viability is 0.993.

What about the relative viability (A-427; first compound 2.53 µM) of the same compound?
Its relative viability is 0.975.

And the relative viability (NCI-H460; first compound 0.08 µM)?
The relative viability was 1.18.

What about the relative viability (NCI-H460; first compound 0.253 µM) of the same compound?
The relative viability was 1.

And the relative viability (NCI-H460; first compound 0.8 µM)?
Its relative viability is 1.07.

What about the relative viability (NCI-H460; first compound 2.53 µM) of the same compound?
The relative viability was 0.968.

And the relative viability (NCI-H2009; first compound 0.08 µM)?
The relative viability was 1.02.

What about the relative viability (NCI-H2009; first compound 0.253 µM) of the same compound?
Its relative viability is 0.682.

And the relative viability (NCI-H2009; first compound 0.8 µM)?
The relative viability was 1.07.

What about the relative viability (NCI-H2009; first compound 2.53 µM) of the same compound?
Its relative viability is 0.891.

What about the relative viability (NCI-H1755; first compound 0.08 µM) of the same compound?
Its relative viability is 1.02.

And the relative viability (NCI-H1755; first compound 0.253 µM)?
Its relative viability is 0.889.

What about the relative viability (NCI-H1755; first compound 0.8 µM) of the same compound?
Its relative viability is 0.828.

What about the relative viability (NCI-H1755; first compound 2.53 µM) of the same compound?
The relative viability was 0.994.

And the relative viability (PC-3 [JPC-3]; first compound 0.08 µM)?
Its relative viability is 0.791.

What about the relative viability (PC-3 [JPC-3]; first compound 0.253 µM) of the same compound?
The relative viability was 0.818.

What about the relative viability (PC-3 [JPC-3]; first compound 0.8 µM) of the same compound?
The relative viability was 0.811.

And the relative viability (PC-3 [JPC-3]; first compound 2.53 µM)?
The relative viability was 0.869.

What about the relative viability (NCI-H650; first compound 0.08 µM) of the same compound?
Its relative viability is 0.707.

And the relative viability (NCI-H650; first compound 0.253 µM)?
Its relative viability is 0.819.

What about the relative viability (NCI-H650; first compound 0.8 µM) of the same compound?
The relative viability was 0.838.

What about the relative viability (NCI-H650; first compound 2.53 µM) of the same compound?
Its relative viability is 0.744.

And the relative viability (SK-LU-1; first compound 0.08 µM)?
Its relative viability is 1.26.

And the relative viability (SK-LU-1; first compound 0.253 µM)?
Its relative viability is 0.993.

What about the relative viability (SK-LU-1; first compound 0.8 µM) of the same compound?
Its relative viability is 1.34.

And the relative viability (SK-LU-1; first compound 2.53 µM)?
Its relative viability is 1.13.

And the relative viability (NCI-H2023; first compound 0.08 µM)?
The relative viability was 1.44.

What about the relative viability (NCI-H2023; first compound 0.253 µM) of the same compound?
The relative viability was 0.651.

What about the relative viability (NCI-H2023; first compound 0.8 µM) of the same compound?
The relative viability was 1.01.

And the relative viability (NCI-H2023; first compound 2.53 µM)?
Its relative viability is 0.978.

And the relative viability (NCI-H1975; first compound 0.08 µM)?
Its relative viability is 0.412.

What about the relative viability (NCI-H1975; first compound 0.253 µM) of the same compound?
Its relative viability is 0.391.

And the relative viability (NCI-H1975; first compound 0.8 µM)?
The relative viability was 0.425.

And the relative viability (NCI-H1975; first compound 2.53 µM)?
The relative viability was 0.328.

And the relative viability (HARA; first compound 0.08 µM)?
The relative viability was 1.05.

And the relative viability (HARA; first compound 0.253 µM)?
The relative viability was 1.09.

And the relative viability (HARA; first compound 0.8 µM)?
Its relative viability is 1.08.

And the relative viability (HARA; first compound 2.53 µM)?
The relative viability was 1.08.
